Laboratory results: US9878054B2, “Polypeptide and lipophilic moiety conjugate compositions, formulations, and uses related thereto” (Tufts Medical Center, Inc., priority 2012, dated 2018)
Where a SMILES comes first, the peptide text is derived from it. The star is where a group is joined. Palmitoyl = CCCCCCCCCCCCCCCC(=O)*

How the values were obtained:
P2Y12 and P2Y1 = test: Baboon ex vivo platelet aggregation, ADP; type: in vivo; conditions: any dose, any time point
Method: A-C, Male baboons (10-12 kg) were administered 1, 3 or 6 mg/kg PZ-128, or 5% dextrose USP vehicle by iv infusion and blood collected into 100 μg/ml PPACK anticoagulant at 0, 1, 2, 6, or 24 h time points. Light transmission platelet aggregometry was performed with platelet rich plasma with the indicated agonists (SFLLRN for PAR1, AYPGKF for PAR4 and ADP for P2Y12 and P2Y1). Data are reported as mean±SD (n=3-7) relative to time 0 controls (0%) and were analyzed by repeated measures one-way ANOVA with Bonferroni post-test correction; *P<0.05, **P<0.01 relative to time 0. Global P values were >0.05 for 1 mg/kg, 0.004 for 3 mg/kg, <0.0001 for 6 mg/kg. D, Pharmacokinetics of 3 and 6 mg/kg 45-min iv infusions of PZ-128 in male baboons. Plasma PZ-128 levels were measured by LC/MS/MS at 9 sequential time points: baseline, 15 min, 30 min, 1 h, 2 h, 4 h, 8 h, 24 h and 48 h after the start of infusion. Open symbols indicated plasma concentrations that were under the measurement threshold (5 ng/ml).
The anti-platelet effects of PZ-128 micelles were next examined in baboons at various time points after receiving different doses of intravenous infusions. […]
Non-terminal thrombosis and platelet aggregation studies were performed on 12 healthy male baboons (Papio anubis) weighing 9-12 kg at the Oregon National Primate Research Center (ONPRC). […] Platelet counts and hematocrit were measured immediately. […]

[1] = system: guinea pig carotid artery thrombosis; test: Guinea pig carotid artery FeCl3 injury arterial thrombosis model; type: in vivo
Method: A carotid artery FeCl3 injury model was used in guinea pigs to assess the anti-thrombotic efficacy of PZ-128 micelles within 15 min of initiation of drug administration. FeCl3 denudes the artery and exposes type I collagen and other subendothelial matrix proteins to initiate platelet-dependent thrombosis. Guinea pigs received 10 min intravenous infusions of PZ-128 micelles, 5 min prior to carotid artery injury. […] Mean occlusion times increased by 4-fold to 40 min at doses above 0.05 mg/kg PZ-128.
Male Hartley guinea pigs (150˜220 g) were purchased from Charles River Laboratories. A 0.61 mm-diameter catheter was inserted into the left jugular vein of anesthetized animals for administration of infusions of 5% USP dextrose vehicle or PZ-128 micelles. A 0.5 V-Doppler probe (Transonic Systems, Ithaca, N.Y.) was placed around the right carotid artery to record blood flow. A range of doses of PZ-128 micelles from 0.05 to 1.6 mg/kg in 0.9 ml volumes were delivered at an injection rate of 0.09 ml/min by a Harvard syringe pump. Five minutes after the infusion ended, arterial thrombosis was induced by placing a 5×5 mm^2 piece of filter paper soaked in freshly made 20% FeCl3 solution on the right carotid artery 5 mm distal to the probe for 20 minutes. […] To examine possible synergistic effects of PZ-128 micelles and P2Y12-ADP receptor inhibition, 1 mg/kg clopidogrel was administered by oral gavage 4 hours prior to FeCl3 injury. In these synergy experiments, the maximum endpoint was set at 90 minutes for occlusion time.

[2] = system: human platelets (thrombin); test: Thrombin-induced aggregation of human platelets; type: cell-based; conditions: 3 μM compound
Method: A, Depiction of the mechanism of action of the cell-penetrating PZ-128 pepducin compound targeting the third intracellular loop (red) of PAR1. B, The NMR structure of PZ-128 was determined by simulated annealing methods using 210 distance restraints and included restraints to the proximal 3 hydrocarbons of the lipid. […] D, PZ-128 inhibits PAR1-dependent platelet aggregation. Gel filtered human platelets were treated with various concentrations of PZ-128 and then challenged with the PAR1 agonist SFLLRN (2.5 μM), 20 μM ADP, 200 μM AYPGKF or 1 mg/ml Ristocetin. E, Human platelets were treated with 3 μM PZ-128, 3 μM RWJ-56110, or 5% dextrose vehicle before the addition of various concentrations of thrombin (n=3-5).
PZ-128 also markedly right-shifted thrombin-induced aggregation by 5-fold. By comparison, the small molecule RWJ-56110 which antagonizes PAR1 at the extracellular ligand-binding site gave a 2-fold right shift in the thrombin activation curve of human platelets.
Whole blood from healthy donors was collected into a 30 ml syringe containing sodium citrate (0.4% vol/vol final). Platelets were isolated from platelet rich plasma (PRP) using Sepharose 2B columns in modified PIPES buffer.

[3] = Solubility of lyophilized PZ-128 after reconstitution (visual inspection); type: physicochemical
Method: Column recovered fractions containing PZ-128 ammonium salts were lyophilized by using the following procedure: 5 mL of elute from reverse phase column cartridge was place into a 15-mL vial; the sample frozen in dry ice-isopropanol bath for 5 minutes with swirling until completely frozen, the temperature should be about −35 to −45° C. and the vacuum pressure should be about 60-100×10^−3 mBar; frozen samples/vials are places in a 0.5-1 L lyophilization glass container; open the chamber to the vacuum pump where the vacuum pressure should rise and then come back to 100-200×10^−3 M Bar until drying is complete; and the sample is stored at −20° C. The product of the first PZ-128 lyophilization was dissolved in pure water and lyophilized a second time.
The different excipients listed in Table 1 were added to 10×500 μL aliquots of the fully soluble 1 mg/mL PZ-128 solution (product of the first lyophilization), mixed, froze, and lyophilization overnight. After lyophilization, the appearance of the dried lyophilizate was examined and the solubility determined after reconstitution with 100 μL water to 5 mg/mL PZ-128 salt product.
The appearances of each of the samples after a second lyophilization from water with the different excipients are listed in Table 1. […]

[4] = system: guinea pig platelets (thromboxane mimetic U46119); test: Guinea pig ex vivo platelet aggregation to thromboxane mimetic U46119 after iv infusion; type: in vivo; conditions: 3 or 6 mg/kg iv, 20 μM U46119
Method: PZ-128 or 5% dextrose USP vehicle was infused for 10 min into the jugular vein of male and female guinea pigs (0.55-0.65 kg). A-C, At the 15 min time point, whole blood was collected by cardiac puncture in 100 μg/ml PPACK/4% Na-citrate (final) anti-coagulant and platelet rich plasma (PRP) prepared and aggregation measurements were performed. […] B-C, PRP obtained at the 15 min time point after infusion with vehicle, 3 mg/kg PZ-128 or 6 mg/kg PZ128 was challenged with 2.5 μM SFLLRN, 20 μM ADP or 20 μM thromboxane mimetic, U46119. Individual data points (n=3) are overlayed on bar graphs depicting mean±SD. […] Data in B-D were analyzed by the non-parametric Kruskal-Wallis test with the Dunn's multiple pairwise comparison post-test.
PZ-128 micelles were delivered by internal jugular vein infusions over 10 min.
Guinea pigs weighing 600-650 g were used for platelet aggregation experiments. PZ-128 micelles (3 or 6 mg/kg) were administered by a 10 min intravenous infusion, and blood was collected by cardiac puncture into sodium citrate (0.4% vol/vol final) 5 minutes after cessation of the infusion. PRP was prepared and PPACK added to a final concentration of 100 μg/ml. PRP was calcified with 2.5 mM CaCl2 and aggregation was performed as described above.

Solubility of product of second lyophilization from pure water ([3]; 5 mg/mL, tested formulations including 100% water): did not solubilize
Solubility of micelles after filtration and second lyophilization with ammonium acetate ([3]; 100% water and 5% dextrose/water at 5 mg/mL): readily soluble
Compound: CCCCCCCCCCCCCCCC(=O)N[C@@H](CCCCN)C(=O)N[C@@H](CCCCN)C(=O)N[C@@H](CO)C(=O)N[C@@H](CCCNC(=N)N)C(=O)N[C@@H](C)C(=O)N[C@@H](CC(C)C)C(=O)N[C@@H](Cc1ccccc1)C(N)=O [PZ-128, palmitate-KKSRALF-NH2] (Palmitoyl-KKSRALF-NH2)
Inhibition of ADP response ex vivo (P2Y12 and P2Y1): no inhibition
EC50, protection against arterial occlusion ([1]; 10 min iv infusion 5 min prior to FeCl3 carotid injury): 0.075 mg/kg
Increase of mean occlusion time ([1]; doses above 0.05 mg/kg): 4 fold
Mean occlusion time ([1]; doses above 0.05 mg/kg): 40 min
Protection against arterial occlusion when used alone ([1]; sub-therapeutic dose alone (PZ-128 0.05 mg/kg; clopidogrel 1 mg/kg PO)): non-significant protection
Right shift of thrombin-induced aggregation curve [2]: 5 fold
Effect on ex vivo aggregation to thromboxane mimetic U46119 [4]: no effect
